# pIC50: −log10 of the molar value. Activity calls are given as the source filed them. The rule behind the calls is not given here.
# Legend:
# [1] = system: Calf thymus DNA; assay: Binding affinity to calf thymus DNA assessed as change in melting temperature in sodium cacodylate buffer at pH 7 at compound:polynucleotide concentration ratio of 0.3 by UV/Vis spectrophotometric analysis; format: nucleic-acid assay; settings: Bos taurus
# [2] = system: Poly(dA-dT)oligonucleotide; assay: Binding affinity to poly(dAdT)2 DNA (unknown origin) assessed as ratio of bound compound to polynucleotide phosphate in sodium cacodylate buffer at pH 7 by fluorescence spectroscopy based Scatchard method; format: nucleic-acid assay
# [3] = system: Calf thymus DNA; assay: Binding affinity to calf thymus DNA in sodium cacodylate buffer at pH 7 by CD spectroscopy; settings: Bos taurus
# [4] = system: Poly(dA-dU)oligonucleotide; assay: Binding affinity to polyA-polyU RNA (unknown origin) assessed as change in melting temperature in sodium cacodylate buffer at pH 7 at compound:polynucleotide concentration ratio of 0.3 by UV/vis spectrophotometric analysis; format: nucleic-acid assay
# [5] = system: HEK293; assay: Cytotoxicity against human HEK293 cells assessed as inhibition of cell growth incubated for 72 hrs by MTT assay; format: cell-based; settings: HEK293, 72 h
# [6] = system: Poly(dA-dT)oligonucleotide; assay: Binding affinity to poly(dAdT)2 DNA (unknown origin) assessed as change in melting temperature in sodium cacodylate buffer at pH 7 at compound:polynucleotide concentration ratio of 0.3 by UV/Vis spectrophotometric analysis; format: nucleic-acid assay
# [7] = system: Quadruplex DNA; assay: Binding affinity to human Tel22 G quadruplex DNA assessed as binding constant in sodium cacodylate buffer at pH 7 at binding stoichiometry ratio of 1:1 by fluorescence spectroscopy; format: nucleic-acid assay
# [8] = system: Poly(dA-dU)oligonucleotide; assay: Binding affinity to polyA-polyU RNA (unknown origin) assessed as binding constant in sodium cacodylate buffer at pH 7 by fluorescence spectroscopy; format: nucleic-acid assay
# [9] = system: Poly(dG-dC)oligonucleotide; assay: Binding affinity to poly(dGdC)2 DNA (unknown origin) in sodium cacodylate buffer at pH 7 by CD spectroscopy; format: nucleic-acid assay
# [10] = system: Quadruplex DNA; assay: Binding affinity to human Tel22 G quadruplex DNA assessed as ratio of fluorescence intensity of compound-polynucleotide complex to fluorescence intensity of compound in sodium cacodylate buffer at pH 7 at binding stoichiometry ratio of 1:1 by fluorescence spectroscopy; format: nucleic-acid assay
# [11] = system: NCI-H460; assay: Antiproliferative activity against human NCI-H460 cells assessed as inhibition of cell growth incubated for 72 hrs by MTT assay; format: functional, cell-based; settings: NCI-H460, 72 h
# [12] = system: Poly(dA-dU)oligonucleotide; assay: Binding affinity to polyA-polyU RNA (unknown origin) assessed as ratio of bound compound to polynucleotide phosphate in sodium cacodylate buffer at pH 7 by fluorescence spectroscopy based Scatchard method; format: nucleic-acid assay
# [13] = system: Poly(dA-dU)oligonucleotide; assay: Binding affinity to polyA-polyU RNA (unknown origin) assessed as ratio of fluorescence intensity of compound-polynucleotide complex to fluorescence intensity of compound in sodium cacodylate buffer at pH 7 by fluorescence spectroscopy based Scatchard method; format: nucleic-acid assay
# [14] = system: Poly(dA-dT)oligonucleotide; assay: Binding affinity to poly(dAdT)2 DNA (unknown origin) assessed as binding constant in sodium cacodylate buffer at pH 7 by fluorescence spectroscopy; format: nucleic-acid assay
# [15] = system: MCF7; assay: Antiproliferative activity against human MCF7 cells assessed as inhibition of cell growth incubated for 72 hrs by MTT assay; format: functional, cell-based; settings: MCF7, 72 h
# [16] = system: Quadruplex DNA; assay: Binding affinity to human Tel22 G quadruplex DNA assessed as change in melting temperature in sodium cacodylate buffer at pH 7 by UV/Vis spectrophotometric analysis; format: nucleic-acid assay
# [17] = system: HCT-116; assay: Antiproliferative activity against human HCT-116 cells assessed as inhibition of cell growth incubated for 72 hrs by MTT assay; format: functional, cell-based; settings: HCT-116, 72 h
# [18] = system: Poly(dA-dT)oligonucleotide; assay: Binding affinity to poly(dAdT)2 DNA (unknown origin) in sodium cacodylate buffer at pH 7 by CD spectroscopy; format: nucleic-acid assay
# [19] = system: Poly(dA-dT)oligonucleotide; assay: Binding affinity to poly(dAdT)2 DNA (unknown origin) assessed as ratio of fluorescence intensity of compound-polynucleotide complex to fluorescence intensity of compound in sodium cacodylate buffer at pH 7 by fluorescence spectroscopy based Scatchard method; format: nucleic-acid assay
# [20] = Selectivity index, ratio of IC50 for human HEK293 cells to IC50 for human HCT116 cells; format: toxicity; settings: HEK293 cells versus HCT116 cells, read-out: Ratio IC50
ΔTm [1] [°C],Ratio [2],ΔTm [4] [°C],ΔTm [6] [°C],log Ks [7],log Ks [8],Activity [9],Ratio [10],pIC50 [11],Ratio [12],Ratio [13],log Ks [14],pIC50 [15],ΔTm [16] [°C],pIC50 [17],Activity [18],Ratio [19],Structure (SMILES),Activity [3],pIC50 [5],selectivity ratio [20]
0.8,0.1,0,0.8,4.51,5.3,inactive,5.52,≤ 4.00,< 0.1,2.5,4.6,≤ 4.00,1.8,≤ 4.00,Active,10.4,CC(C)CNc1c(C#N)c2nc3cccnc3n2c2ccccc12,Active,< 4.00,
,,,,,,,,5.34,,,,5.70,,7.00,,,N#Cc1c(Cl)c2ccccc2n2c1nc1ncccc12,,5.80,16

# From ChEMBL document CHEMBL4814006, “Novel amino substituted tetracyclic imidazo[4,5-b]pyridine derivatives: Design, synthesis, antiproliferative activity and DNA/RNA binding study” (Eur J Med Chem, 2021)
